Source: PubChem BioAssay AID1919016 (Molecular Pharmacology Branch, DTP, NCI, 2023)
Where “and” joins values, the source holds several entries; their conditions need not be identical. Identical values can stand only once. One block for each compound: values may come before it.

System: NCI-H196 complex spheroid growth, percent test/control
Assay: Anticancer human tumor NCI-H196 cell line growth inhibition [AhR];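 note: seven days of drug exposure starting three days after plating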;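 for viability, T/C: 100% = DMSO vehicle control wells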
Settings: for viability, T/C: stronger effect = lower value
From the text: Multicellular complex tumor spheroid response to aryl hydrocarbon receptor antagonists in combination with a variety of drugs and investigational agents in selected tumor cell lines
The current study was undertaken to assess response to aryl hydrocarbon receptor antagonists in combination with standard-of-care drugs and investigational agents in solid tumor complex spheroid models. Complex spheroids include a stromal component modeled by human endothelial cells (HUVEC) and fibroblasts modeled by human mesenchymal stem cells (MSCs). The concentration ranges selected for each drug and investigational agent were based upon clinically achievable concentrations if the clinical Cmax of the agent was known.
Compounds. The drugs and investigational agents: BAY 2416964 (NSC825713), GNF351 (NSC835774), CH-223191 (NSC835775), CPI-455 (NSC825282), aza-TdCyd (NSC777586), decitabine (NSC127716), belinostat (NSC758774), entinostat (NSC756642), pevonedistat (NSC761192), tazemetostat (NSC777109), talazoparib (NSC765396), olaparib (NSC753686), selinexor (NSC780203), nedisertib (M3814, NSC802822), bortezomib (NSC756655), venetoclax (NSC766270), doxorubicin (NSC123127), elimusertib (BAY189344, NSC800525), ceralasertib (AZD6738, NSC777638), TAK-243 (NSC785004), alisertib (NSC759677), etoposide (NSC141540), topotecan (NSC609699), eribulin (NSC707389), gemcitabine (NSC613327), carboplatin (NSC241240), cisplatin (NSC119875), and SN-38 (NSC673596) were obtained from the National Cancer Institute (NCI) Developmental Therapeutics Program Chemical Repository (32). The FDA-approved anticancer drug set is available from the Developmental Therapeutics Program at https://dtp.cancer.gov/organization/dscb/obtaining/available plates.htm. […] The stock solutions were prepared in dimethyl sulfoxide (DMSO, Sigma-Aldrich, St. Louis, MO, cat. D2650), except for the platinum compounds which were prepared in saline (Quality Biological, Gaithersburg, MD, cat. 114-055-101), at 800-fold the tested concentration and stored at -70 degrees C prior to their use. All drugs and investigational agents were tested over a range starting from a high concentration at or near the clinical Cmax and decreasing in half-log increments. If the clinical Cmax for an agent had not been determined, the highest concentration tested was 10 microM (Table 1).
Cell Culture. All cells were maintained in an incubator at 37 degrees C and 5% CO2 with 95% humidity. The PDC lines were cultured according to standard operating procedures established by the NCI PDMR (https://pdmr.cancer.gov). Briefly, all PDCs were thawed and cultured in Matrigel-coated flasks prepared with a working solution of 1X Ham's F-12 nutrient mix, without supplementation (Invitrogen, Waltham, MA, cat. 11765054), 100 U/mL penicillin-streptomycin (Invitrogen, cat. 15140122), and 2.5% Matrigel (Corning Inc., Corning, NY, cat. 354248) for the first three passages. All PDCs were cultured in complete DMEM/F-12 media containing advanced DMEM/F-12 (Invitrogen, cat. 12634028), 4.9% defined fetal bovine serum, heat inactivated (HyClone Laboratories Inc., Logan, UT, cat. SH30070.03HI), 389 ng/mL hydrocortisone (Sigma-Aldrich, cat. H4001), 9.7 ng/mL human EGF recombinant protein (Invitrogen, cat. PHG0313), 23.4 microg/mL adenine (Sigma-Aldrich, cat. A2786), 97.3 U/mL penicillin-streptomycin (Invitrogen, cat. 15140122), 1.9 mM L-glutamine (Invitrogen, cat. 25030081), and 9.7 microM Y-27632 dihydrochloride (Tocris Bioscience, Bristol, United Kingdom, cat. 1254). The PDCs were cultured in complete DMEM/F12 media without 10 microM Y-27632 dihydrochloride for at least two passages prior to the screen. The established cell lines NCI-H1341 and […] were cultured in DMEM/F-12, HEPES (Invitrogen, cat. 11330032), 5% defined fetal bovine serum (HyClone Laboratories Inc., cat. SH30070.03), ITS premix universal culture supplement [insulin (5 microg/mL), transferrin (5 microg/mL), and selenious acid (5 ng/mL)] […]

[1] = curve of first compound, second compound 0.1 µM
[2] = curve of first compound, second compound 0.316 µM
[3] = curve of first compound, second compound 1 µM
[4] = curve of first compound, second compound 3.16 µM
[5] = curve of first compound, second compound 10 µM
[6] = second compound 0.1 µM, first compound 0.0316 µM
[7] = second compound 0.1 µM, first compound 0.1 µM
[8] = second compound 0.316 µM, first compound 0.0316 µM
[9] = second compound 0.316 µM, first compound 0.1 µM
[10] = second compound 1 µM, first compound 0.0316 µM
[11] = second compound 1 µM, first compound 0.1 µM
[12] = second compound 3.16 µM, first compound 0.0316 µM
[13] = second compound 3.16 µM, first compound 0.1 µM
[14] = second compound 10 µM, first compound 0.0316 µM
[15] = second compound 10 µM, first compound 0.1 µM

- IC50 [1]: > 100 nM
- IC50 [2]: > 100 nM
- IC50 [3]: > 100 nM
- IC50 [4]: > 100 nM
- IC50 [5]: > 100 nM
Structure (SMILES): CC[C@@]1(O)C(=O)OCc2c1cc1n(c2=O)Cc2cc3c(CN(C)C)c(O)ccc3nc2-1 + Cc1cncc(-c2nc(NCCc3c[nH]c4ccccc34)c3ncn(C(C)C)c3n2)c1
- viability, T/C (second compound 0.1 µM, first compound 0.000316 µM): 105%
- viability, T/C (second compound 0.1 µM, first compound 0.001 µM): 95.5%
- viability, T/C (second compound 0.1 µM, first compound 0.00316 µM): 83%
- viability, T/C (second compound 0.1 µM, first compound 0.01 µM): 88.8%
- viability, T/C [6]: 96.8%
- viability, T/C [7]: 105%
- viability, T/C (second compound 0.316 µM, first compound 0.000316 µM): 101%
- viability, T/C (second compound 0.316 µM, first compound 0.001 µM): 100%
- viability, T/C (second compound 0.316 µM, first compound 0.00316 µM): 98.8%
- viability, T/C (second compound 0.316 µM, first compound 0.01 µM): 95.5%
- viability, T/C [8]: 94.7%
- viability, T/C [9]: 99.2%
- viability, T/C (second compound 1 µM, first compound 0.000316 µM): 108%
- viability, T/C (second compound 1 µM, first compound 0.001 µM): 103%
- viability, T/C (second compound 1 µM, first compound 0.00316 µM): 91%
- viability, T/C (second compound 1 µM, first compound 0.01 µM): 92.3%
- viability, T/C [10]: 101%
- viability, T/C [11]: 89.8%
- viability, T/C (second compound 3.16 µM, first compound 0.000316 µM): 104%
- viability, T/C (second compound 3.16 µM, first compound 0.001 µM): 101%
- viability, T/C (second compound 3.16 µM, first compound 0.00316 µM): 96.7%
- viability, T/C (second compound 3.16 µM, first compound 0.01 µM): 88.8%
- viability, T/C [12]: 104%
- viability, T/C [13]: 95.2%
- viability, T/C (second compound 10 µM, first compound 0.000316 µM): 82.8%
- viability, T/C (second compound 10 µM, first compound 0.001 µM): 97.7%
- viability, T/C (second compound 10 µM, first compound 0.00316 µM): 95.7%
- viability, T/C (second compound 10 µM, first compound 0.01 µM): 74.1%
- viability, T/C [14]: 83.9%
- viability, T/C [15]: 77.2%

- IC50 (compound alone, run of 08/16/2022): > 10000 nM
Structure (SMILES): Cc1cncc(-c2nc(NCCc3c[nH]c4ccccc34)c3ncn(C(C)C)c3n2)c1
- viability, T/C (compound 0.1 µM): 96.5% [middle of 20 runs]
- viability, T/C (compound 0.316 µM): 99% [middle of 20 runs]
- viability, T/C (compound 1 µM): 101% [middle of 20 runs]
- viability, T/C (compound 3.16 µM): 106% [middle of 20 runs]

- IC50 [1]: 509 nM
- IC50 [2]: 519 nM
- IC50 [3]: 523 nM
- IC50 [4]: 596 nM
- IC50 [5]: 593 nM
Structure (SMILES): Nc1ccccc1NC(=O)c1ccc(CNC(=O)OCc2cccnc2)cc1 + CC(CO)NC(=O)c1cc(-c2ccc(Cl)cc2)nn(-c2cnn(C)c2)c1=O
- viability, T/C [6]: 80.5%
- viability, T/C [7]: 81.1%
- viability, T/C (second compound 0.1 µM, first compound 0.316 µM): 62.6%
- viability, T/C (second compound 0.1 µM, first compound 1 µM): 29.9%
- viability, T/C (second compound 0.1 µM, first compound 3.16 µM): 15.4%
- viability, T/C (second compound 0.1 µM, first compound 10 µM): 0.46%
- viability, T/C [8]: 87.5%
- viability, T/C [9]: 81.5%
- viability, T/C (second compound 0.316 µM, first compound 0.316 µM): 61.6%
- viability, T/C (second compound 0.316 µM, first compound 1 µM): 33.7%
- viability, T/C (second compound 0.316 µM, first compound 3.16 µM): 12.8%
- viability, T/C (second compound 0.316 µM, first compound 10 µM): 0.5%
- viability, T/C [10]: 87.9%
- viability, T/C [11]: 79.3%
- viability, T/C (second compound 1 µM, first compound 0.316 µM): 63.2%
- viability, T/C (second compound 1 µM, first compound 1 µM): 32.9%
- viability, T/C (second compound 1 µM, first compound 3.16 µM): 14.5%
- viability, T/C (second compound 1 µM, first compound 10 µM): 0.63%
- viability, T/C [12]: 85.6%
- viability, T/C [13]: 89.4%
- viability, T/C (second compound 3.16 µM, first compound 0.316 µM): 65.3%
- viability, T/C (second compound 3.16 µM, first compound 1 µM): 34.7%
- viability, T/C (second compound 3.16 µM, first compound 3.16 µM): 15.3%
- viability, T/C (second compound 3.16 µM, first compound 10 µM): 0.42%
- viability, T/C [14]: 91.7%
- viability, T/C [15]: 87.5%
- viability, T/C (second compound 10 µM, first compound 0.316 µM): 74.1%
- viability, T/C (second compound 10 µM, first compound 1 µM): 29.2%
- viability, T/C (second compound 10 µM, first compound 3.16 µM): 12.9%
- viability, T/C (second compound 10 µM, first compound 10 µM): 0.86%

- IC50 (curve of compound): > 10000 nM
Structure (SMILES): COc1cc(C2c3cc4c(cc3C(OC3OC5COC(C)OC5C(O)C3O)C3COC(=O)C23)OCO4)cc(OC)c1O (configuration not stated)
- viability, T/C (compound 0.0316 µM): 114% and 96.5% and 94.6%
- viability, T/C (compound 0.1 µM): 103% and 110% and 111%
- viability, T/C (compound 0.316 µM): 122% and 107% and 91.5%
- viability, T/C (compound 1 µM): 94.3% and 121% and 94.5%
- viability, T/C (compound 3.16 µM): 93.5% and 114% and 91.3%
- viability, T/C (compound 10 µM): 90.1% and 89.2% and 76.2%
